# How the values were obtained:
# human orexin receptor 1 = human orexin receptor 1 (Homo sapiens (Human), UniProt O43613); test: Orexin antagonist activity, intracellular calcium FLIPR assay, RBL-2H3 cells expressing human orexin receptor 1; type: cell-based; settings: RBL-2H3 cells stably expressing human orexin receptor 1; orexin-A at approx. 80% maximal response; compound added 15 minutes before; read-out: Human Orexin1R IC50
# human orexin receptor 2 = human orexin receptor 2 (Homo sapiens (Human), UniProt O43614); test: Orexin antagonist activity, intracellular calcium FLIPR assay, RBL-2H3 cells expressing human orexin receptor 2; type: cell-based; settings: RBL-2H3 cells stably expressing human orexin receptor 2; orexin-A at approx. 80% maximal response; compound added 15 minutes before; read-out: Human Orexin2R IC50
# human orexin receptor 2, sequence (O43614 whole entry): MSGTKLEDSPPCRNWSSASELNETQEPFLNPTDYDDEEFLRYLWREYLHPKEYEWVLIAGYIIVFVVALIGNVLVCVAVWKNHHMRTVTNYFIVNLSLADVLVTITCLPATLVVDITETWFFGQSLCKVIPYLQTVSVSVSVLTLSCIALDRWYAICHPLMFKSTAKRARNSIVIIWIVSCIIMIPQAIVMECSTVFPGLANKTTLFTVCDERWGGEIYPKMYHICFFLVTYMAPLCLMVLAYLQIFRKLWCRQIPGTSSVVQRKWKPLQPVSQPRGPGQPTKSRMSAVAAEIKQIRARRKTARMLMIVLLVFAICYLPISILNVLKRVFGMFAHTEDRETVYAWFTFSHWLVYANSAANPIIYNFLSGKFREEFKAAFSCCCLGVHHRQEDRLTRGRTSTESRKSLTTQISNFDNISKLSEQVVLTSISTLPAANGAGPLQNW
# human orexin receptor 1, sequence (O43613 whole entry): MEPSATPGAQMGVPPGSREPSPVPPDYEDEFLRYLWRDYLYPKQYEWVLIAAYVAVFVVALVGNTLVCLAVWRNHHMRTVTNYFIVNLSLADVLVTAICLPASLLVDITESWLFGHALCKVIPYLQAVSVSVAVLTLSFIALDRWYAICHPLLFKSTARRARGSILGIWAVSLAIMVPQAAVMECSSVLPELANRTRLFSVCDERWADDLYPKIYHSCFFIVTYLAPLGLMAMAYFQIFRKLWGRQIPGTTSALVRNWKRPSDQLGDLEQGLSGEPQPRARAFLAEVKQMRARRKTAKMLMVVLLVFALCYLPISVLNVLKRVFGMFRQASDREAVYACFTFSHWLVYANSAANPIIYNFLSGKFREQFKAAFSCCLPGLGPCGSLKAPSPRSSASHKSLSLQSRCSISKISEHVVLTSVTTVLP
SMILES,IC50 (human orexin receptor 1),IC50 (human orexin receptor 2)
"O=C(N[C@H]1CCC[C@@H]1Nc1ncc(C(F)(F)F)cc1F)c1ccccc1-c1ncccn1 [Example 138, N-[(1S,2S)-2-{[3-Fluoro-5-(trifluoromethyl)pyridin-2-yl]amino}cyclopentyl]-2-(pyrimidin-2-yl)benzamide]",30 nM,> 10000 nM
"O=C(N[C@H]1CCC[C@@H]1Nc1ccc(C(F)(F)F)cn1)c1ccccc1-n1nccn1 [Example 12, 2-(2H-1,2,3-Triazol-2-yl)-N-[(1S,2S)-2-{[5-(trifluoromethyl)pyridin-2-yl]amino}cyclopentyl]benzamide]",65 nM,> 10000 nM
"CCc1nc(C(F)(F)F)cnc1N[C@H]1CCC[C@@H]1NC(=O)c1ncccc1-c1ncccn1 [Example 150, N-[(1S,2S)-2-{[3-Ethyl-5-(trifluoromethyl)pyrazin-2-yl]amino}cyclopentyl]-3-(pyrimidin-2-yl)pyridine-2-carboxamide]",43 nM,> 10000 nM
"COc1cccc(OC)c1C(=O)N[C@H]1CCC[C@@H]1Nc1cccc(C(F)(F)F)n1 [Example 27, 2,6-Dimethoxy-N-[(1S,2S)-2-{[6-(trifluoromethyl)pyridin-2-yl]amino}cyclopentyl]benzamide]",726 nM,2000 nM
"Cc1ccc(-n2nccn2)c(C(=O)N[C@H]2CCC[C@@H]2Nc2ccc(C(F)(F)F)nc2)c1 [Example 67, 5-Methyl-2-(2H-1,2,3-triazol-2-yl)-N-[(1S,2S)-2-{[6-(trifluoromethyl)pyridin-3-yl]amino}cyclopentyl]benzamide]",891 nM,> 10000 nM
"Cc1ccc(-n2nccn2)c(C(=O)N[C@H]2CCC[C@@H]2Nc2cnc(C(F)(F)F)cn2)c1 [Example 7, 5-Methyl-2-(2H-1,2,3-triazol-2-yl)-N-[(1S,2S)-2-{[5-(trifluoromethyl)pyrazin-2-yl]amino}cyclopentyl]benzamide]",51 nM,> 10000 nM
"CC1(Nc2ccc(OC(F)(F)F)cn2)CCCC1NC(=O)c1ccccc1-n1nccn1 (stereo not shown) [Example 96, N-(2-Methyl-2-{[5-(trifluoromethoxy)pyridin-2-yl]amino}cyclopentyl)-2-(2H-1,2,3-triazol-2-yl)benzamide]",86 nM,1360 nM
"C[C@]1(Nc2cnc(C(F)(F)F)cn2)CCC[C@@H]1NC(=O)c1ncccc1-n1cccn1 [Example 85, N-[(1S,2S)-2-Methyl-2-{[5-(trifluoromethyl)pyrazin-2-yl]amino}cyclopentyl]-3-(1H-pyrazol-1-yl)pyridine-2-carboxamide]",18 nM,> 10000 nM
"CC(C)c1cnc(N[C@H]2CCC[C@@H]2NC(=O)c2ccccc2-n2nccn2)cn1 [Example 113, N-[(1S,2S)-2-{[5-(Propan-2-yl)pyrazin-2-yl]amino}cyclopentyl]-2-(2H-1,2,3-triazol-2-yl)benzamide]",67 nM,> 10000 nM
"O=C(N[C@H]1CCC[C@@H]1Nc1cnc(C(F)(F)F)cn1)c1c(F)cccc1C1CC1 [Example 66, 2-Cyclopropyl-6-fluoro-N-[(1S,2S)-2-{[5-(trifluoromethyl)pyrazin-2-yl]amino}cyclopentyl]benzamide]",180 nM,> 10000 nM
"Cc1nnc(-c2ccccc2C(=O)N[C@H]2CCC[C@]2(C)Nc2cnc(C(F)(F)F)cn2)o1 [Example 160, 2-(5-Methyl-1,3,4-oxadiazol-2-yl)-N-[(1S,2S)-2-methyl-2-{[5-(trifluoromethyl)pyrazin-2-yl]amino}cyclopentyl]benzamide]",29 nM,> 10000 nM
"Cc1ccc(-n2cccn2)c(C(=O)N[C@H]2CCC[C@@H]2Nc2cnc(C(F)(F)F)cn2)c1 [Example 48, 5-Methyl-2-(1H-pyrazol-1-yl)-N-[(1S,2S)-2-{[5-(trifluoromethyl)pyrazin-2-yl]amino}cyclopentyl]benzamide]",88 nM,> 10000 nM
"COc1cccc(OC)c1C(=O)N[C@H]1CCC[C@@H]1Nc1cnc(C(F)(F)F)cn1 [Example 34, 2,6-Dimethoxy-N-[(1S,2S)-2-{[5-(trifluoromethyl)pyrazin-2-yl]amino}cyclopentyl]benzamide]",523 nM,> 10000 nM
"CC1(Nc2ccc(C(F)(F)F)cn2)CCCC1NC(=O)c1ncccc1-n1nccn1 (stereo not shown) [Example 155, N-(2-Methyl-2-{[5-(trifluoromethyl)pyridin-2-yl]amino}cyclopentyl)-3-(2H-1,2,3-triazol-2-yl)pyridine-2-carboxamide]",8 nM,> 10000 nM
"CC1(Nc2ccc(C(F)(F)F)cn2)CCCC1NC(=O)c1ccccc1-n1nccn1 (stereo not shown) [Example 95, N-(2-Methyl-2-{[5-(trifluoromethyl)pyridin-2-yl]amino}cyclopentyl)-2-(2H-1,2,3-triazol-2-yl)benzamide]",19 nM,1070 nM
"C[C@]1(Nc2cnc(C(F)(F)F)cn2)CCC[C@@H]1NC(=O)c1c(F)cccc1F [Example 88, 2,6-Difluoro-N-[(1S,2S)-2-methyl-2-{[5-(trifluoromethyl)pyrazin-2-yl]amino}cyclopentyl]benzamide]",166 nM,> 10000 nM

SMILES,IC50 (human orexin receptor 1),IC50 (human orexin receptor 2)
"O=C(N[C@H]1CCC[C@@H]1Nc1cnc(C(F)(F)F)cn1)c1cc(Cl)ccc1-n1nccn1 [Example 52, 5-Chloro-2-(2H-1,2,3-triazol-2-yl)-N-[(1S,2S)-2-{[5-(trifluoromethyl)pyrazin-2-yl]amino}cyclopentyl]benzamide]",69 nM,> 10000 nM
"O=C(NC1CC(F)(F)CC1Nc1cnc(C(F)(F)F)cn1)c1ccccc1-n1nccn1 (stereo not shown) [Example 126, N-(4,4-Difluoro-2-{[5-(trifluoromethyl)pyrazin-2-yl]amino}cyclopentyl)-2-(2H-1,2,3-triazol-2-yl)benzamide]",119 nM,> 10000 nM
"Cc1ccc(-n2nccn2)c(C(=O)N[C@H]2CCC[C@@H]2Nc2ncc(C(F)(F)F)cn2)c1 [Example 3, 5-Methyl-2-(2H-1,2,3-triazol-2-yl)-N-[(1S,2S)-2-{[5-(trifluoromethyl)pyrimidin-2-yl]amino}cyclopentyl]benzamide]",58 nM,> 10000 nM
"CC1(Nc2ncc(C(F)(F)F)cn2)CCCC1NC(=O)c1ccccc1-n1nccn1 (single isomer, unassigned) [Example 94, N-(2-Methyl-2-{[5-(trifluoromethyl)pyrimidin-2-yl]amino}cyclopentyl)-2-(2H-1,2,3-triazol-2-yl)benzamide]",28 nM,> 10000 nM
"O=C(N[C@H]1CCC[C@@H]1Nc1ncc(C(F)(F)F)cc1F)c1ccccc1-n1nccn1 [Example 105, N-[(1S,2S)-2-{[3-Fluoro-5-(trifluoromethyl)pyridin-2-yl]amino}cyclopentyl]-2-(2H-1,2,3-triazol-2-yl)benzamide]",39 nM,> 10000 nM
"CC1(Nc2cnc(C(F)(F)F)cn2)CCCC1NC(=O)c1ccccc1-n1nccn1 (stereo not shown) [Example 82, N-(2-Methyl-2-{[5-(trifluoromethyl)pyrazin-2-yl]amino}cyclopentyl)-2-(2H-1,2,3-triazol-2-yl)benzamide]",21 nM,7540 nM
"O=C(N[C@H]1CCC[C@@H]1Nc1ncc(C(F)(F)F)cn1)c1ccccc1-n1nccn1 [Example 18, 2-(2H-1,2,3-Triazol-2-yl)-N-[(1S,2S)-2-{[5-(trifluoromethyl)pyrimidin-2-yl]amino}cyclopentyl]benzamide]",57 nM,> 10000 nM
"O=C(N[C@H]1CC(F)(F)C[C@@H]1Nc1ncc(C(F)(F)F)cc1F)c1ccccc1-n1nccn1 [Example 132, N-[(1S,2S)-4,4-Difluoro-2-{[3-fluoro-5-(trifluoromethyl)pyridin-2-yl]amino}cyclopentyl]-2-(2H-1,2,3-triazol-2-yl)benzamide]",12 nM,> 10000 nM
"Cc1nc(C(F)(F)F)cnc1N[C@H]1CCC[C@@H]1NC(=O)c1ncccc1-n1nccn1 [Example 76, N-[(1S,2S)-2-{[3-Methyl-5-(trifluoromethyl)pyrazin-2-yl]amino}cyclopentyl]-3-(2H-1,2,3-triazol-2-yl)pyridine-2-carboxamide]",33 nM,> 10000 nM
"O=C(N[C@H]1CCC[C@@H]1Nc1ccc(C(F)(F)F)cn1)c1ncccc1-n1cccn1 [Example 101, 3-(1H-Pyrazol-1-yl)-N-[(1S,2S)-2-{[5-(trifluoromethyl)pyridin-2-yl]amino}cyclopentyl]pyridine-2-carboxamide]",310 nM,> 10000 nM
"Cc1noc(-c2ccccc2C(=O)N[C@H]2CCC[C@@H]2Nc2ccc(C(F)(F)F)cn2)n1 [Example 8, 2-(3-Methyl-1,2,4-oxadiazol-5-yl)-N-[(1S,2S)-2-{[5-(trifluoromethyl)pyridin-2-yl]amino}cyclopentyl]benzamide]",110 nM,> 10000 nM
"O=C(N[C@H]1CCC[C@@H]1Nc1ncc(C(F)(F)F)nc1C1CC1)c1ncccc1-n1nccn1 [Example 142, N-[(1S,2S)-2-{[3-Cyclopropyl-5-(trifluoromethyl)pyrazin-2-yl]amino}cyclopentyl]-3-(2H-1,2,3-triazol-2-yl)pyridine-2-carboxamide]",12 nM,8830 nM
"O=C(N[C@H]1CCC[C@@H]1Nc1ncc(C(F)(F)F)nc1C1CC1)c1ncccc1-c1ncccn1 [Example 143, N-[(1S,2S)-2-{[3-Cyclopropyl-5-(trifluoromethyl)pyrazin-2-yl]amino}cyclopentyl]-3-(pyrimidin-2-yl)pyridine-2-carboxamide]",49 nM,> 10000 nM
"O=C(NC1CCCC1Cc1cc(C(F)(F)F)ccn1)c1ccccc1-n1nccn1 (stereo not shown) [Example 22, 2-(2H-1,2,3-Triazol-2-yl)-N-(2-{[4-(trifluoromethyl)pyridin-2-yl]methyl}cyclopentyl)benzamide]",665 nM,6160 nM
"O=C(NC1CC(F)(F)CC1Nc1cnc(C(F)(F)F)cn1)c1ccccc1-n1nccn1 (single isomer, unassigned) [Example 130, N-(4,4-Difluoro-2-{[5-(trifluoromethyl)pyrazin-2-yl]amino}cyclopentyl)-2-(2H-1,2,3-triazol-2-yl)benzamide]",77 nM,
